# Measurements reported in US20230011869A1 (Hoffmann-La Roche Inc., priority 2018, published 2023).
# Counter-ions that a name gives are not always drawn.
# Tested on: Acinetobacter baumannii ATCC17978
# Experiment: Antimicrobial susceptibility testing: 90% growth inhibitory concentration (IC90) determination, Iso-Sensitest broth
# Type: cell-based
# Conditions: 90% growth inhibitory concentration, Acinetobacter baumannii ATCC17978, Iso-Sensitest broth, OD 600 nm over 16 h; read-out: ATCC17978 IC90
# Procedure, shortened: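 A. baumannii ATCC17978 grown in Iso-Sensitest broth across 10 compound concentrations at 35±2 °C.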
row,Structure (SMILES),IC90
1,"CCOc1ccc(-c2cnc3c(Nc4ccc(C(=O)N5CCC(CN)CC5)c(C)c4)nccn23)c(F)c1Cl [Example 110, (4-(aminomethyl)piperidin-1-yl)(4-((3-(3-chloro-4-ethoxy-2-fluorophenyl)imidazo[1,2-a]pyrazin-8-yl)amino)-2-methylphenyl)methanone formate]",420 nM
2,"Cc1cc(Nc2nccn3c(-c4ccc(OC(F)F)cc4)cnc23)ccc1C(=O)N1CCNCC1 [Example 129, [4-[[3-[4-(difluoromethoxy)phenyl]imidazo[1,2-a]pyrazin-8-yl]amino]-2-methyl-phenyl]-piperazin-1-yl-methanone hydrochloride]",910 nM
3,"COc1ccc(-c2cnc3c(Nc4ccc(C(=O)N5CCC(C(=O)NCCNCCO)CC5)c(C)c4)nccn23)cc1F [Example 396, 1-[4-[[3-(3-fluoro-4-methoxyphenyl)imidazo[1,2-a]pyrazin-8-yl]amino]-2-methylbenzoyl]-N-[2-(2-hydroxyethylamino)ethyl]pi-peridine-4-carboxamide; 2,2,2-trifluoroacetic acid]",340 nM
4,"Cc1cc(Nc2nccn3c(-c4ccc(OCC#CCN)c(F)c4)cnc23)ccc1C(=O)N1CCC(CNC(=O)OC(C)(C)C)CC1 [Example 274, tert-butyl N-[[1-[4-[[3-[4-(4-aminobut-2-ynoxy)-3-fluorophenyl]imidazo[1,2-a]pyrazin-8-yl]amino]-2-methylbenzoyl]piperidin-4-yl]methyl]carbamate]",2800 nM
5,"COc1ccc(-c2cnc3c(Nc4ccc(C(=O)N5CC6(CNC6)C5)c(C)c4)nccn23)cc1F [Example 413, 2,6-diazaspiro[3.3]heptan-2-yl-[4-[[3-(3-fluoro-4-methoxyphenyl)imidazo[1,2-a]pyrazin-8-yl]amino]-2-methylphenyl]methanone; for-mic acid]",770 nM
6,"COc1ccc(-c2cnc3c(Nc4ccc(C(=O)N5C[C@@H](O)[C@H](O)C5)c(C)c4)nccn23)cc1F [Example 425, [(3R,4R)-3,4-dihydroxypyrrolidin-1-yl]-[4-[[3-(3-fluoro-4-methoxyphenyl)imidazo[1,2-a]pyrazin-8-yl]amino]-2-methylphenyl]methanone]",1200 nM
7,"Cc1cc(Nc2nccn3c(-c4ccc(OCC#N)c(F)c4F)cnc23)ccc1C(=O)N1CCN(C(=O)NCCN)CC1 [Example 139, N-(2-aminoethyl)-4-[4-[[3-[4-(cyanomethoxy)-2,3-difluoro-phenyl]imidazo[1,2-a]pyrazin-8-yl]amino]-2-methyl-benzoyl]piperazine-1-carboxamide formate]",130 nM
8,"CCc1cc(Nc2nccn3c(-c4ccc(OCC#N)c(F)c4F)cnc23)ccc1C(=O)N1CCN(C(=O)[C@@H]2C[C@@H](O)CN2)CC1 [Example 510, 2-[4-[8-[3-ethyl-4-[4-[(2S,4R)-4-hydroxypyrrolidine-2-carbonyl]piperazine-1-carbonyl]annilino]imidazo[1,2-a]pyrazin-3-yl]-2,3-difluorophenoxy]acetonitrile; formic acid]",550 nM
9,"Cc1cc(Nc2nccn3c(-c4ccc(OC(F)F)cc4)cnc23)ccc1C(=O)N1CCN(C(=O)N2CCNC(CO)C2)CC1 (stereo not shown) [Example 133, [4-[[3-[4-(difluoromethoxy)phenyl]imidazo[1,2-a]pyrazin-8-yl]amino]-2-methyl-phenyl]-[4-[3-(hydroxymethyl)piperazine-1-carbonyl]piperazin-1-yl]methanone hydrochloride]",230 nM
10,"Cc1cc(Nc2nccn3c(-c4ccc(OCC#N)c(F)c4F)cnc23)ccc1C(=O)N1CCN(C(=O)[C@@H]2CCNC[C@H]2O)CC1 (racemic) [Example 472, 2-[2,3-difluoro-4-[8-[3-methyl-4-[4-[rac-(3R,4S)-3-hydroxypiperidine-4-carbonyl]piperazine-1-carbonyl]anilino]imidazo[1,2-a]pyrazin-3-yl]phenoxy]acetonitrile; for-mic acid]",230 nM
11,"COc1ccc(-c2cnc3c(Nc4ccc(C(=O)N5CCN(C6CNC6)CC5)c(C)c4)nccn23)cc1F [Example 73, (4-(azetidin-3-yl)piperazin-1-yl)(4-((3-(3-fluoro-4-methoxyphenyl)imidazo[1,2-a]pyrazin-8-yl)amino)-2-methylphenyl)methanone hydrochloride]",330 nM

# Same assay, conditions: Acinetobacter baumannii, ATCC17978, 16 h, read-out: ATCC17978 IC90, 90% growth inhibitory concentration, Acinetobacter baumannii ATCC17978, Iso-Sensitest broth, OD 600 nm over 16 h
row,Structure (SMILES),IC90
1,"Cc1cc(Nc2nccn3c(-c4ccc(OC(F)F)cc4)cnc23)ccc1C(=O)N1CCN(C(=O)[C@@H]2CCNC2)CC1 [Example 486, [4-[[3-[4-(difluoromethoxy)phenyl]imi-dazo[1,2-a]pyrazin-8-yl]amino]-2-methylphenyl]-[4-[(3R)-pyrrolidine-3-carbonyl]piperazin-1-yl]methanone; hydrochloride]",190 nM
2,"CCC[C@@H](N)C(=O)N1CCN(C(=O)c2ccc(Nc3nccn4c(-c5ccc(OC(F)F)cc5)cnc34)cc2C)CC1 [Example 342, (2R)-2-amino-1-[4-[4-[[3-[4-(difluoromethoxy)phenyl]imi-dazo[1,2-a]pyrazin-8-yl]amino]-2-methylbenzoyl]piperazin-1-yl]pentan-1-one; hydrochloride]",550 nM
3,"Cc1cc(Nc2nccn3c(-c4ccc(OC(F)F)cc4)cnc23)ccc1C(=O)N1CCN(CC(=O)N2CCCC2)CC1 [Example 377, 2-[4-[4-[[3-[4-(difluoromethoxy)phenyl]imi-dazo[1,2-a]pyrazin-8-yl]amino]-2-methylbenzoyl]piperazin-1-yl]-1-pyrrolidin-1-ylethanone]",2300 nM
4,"CCc1cc(Nc2nccn3c(-c4ccc(OC(F)F)cc4)cnc23)ccc1C(=O)N1CCC(CN)CC1 [Example 363, [4-(aminomethyl)piperidin-1-yl]-[4-[[3-[4-(difluoromethoxy)phenyl]imi-dazo[1,2-a]pyrazin-8-yl]amino]-2-ethylphenyl]methanone; hydro-chloride]",520 nM
5,"Cc1cc(Nc2nccn3c(-c4ccc(OC(F)F)cc4)cnc23)ccc1C(=O)N1CCN(C(=O)C(O)CO)CC1 (stereo not shown) [Example 346, 1-[4-[4-[[3-[4-(difluoromethoxy)phenyl]imi-dazo[1,2-a]pyrazin-8-yl]amino]-2-methylbenzoyl]piperazin-1-yl]-2,3-dihydroxypropan-1-one]",620 nM
6,"COc1ccc(-c2cnc3c(Nc4ccc(C(=O)N5CCN(C(=O)[C@@H]6CCNC6)CC5)c(C)c4)nccn23)c(Cl)c1F [Example 474, [4-[[3-(2-chloro-3-fluoro-4-methoxyphenyl)imidazo[1,2-a]pyrazin-8-yl]amino]-2-methylphenyl]-[4-[(3R)-pyrrolidine-3-carbonyl]piperazin-1-yl]methanone; formic acid]",94 nM
7,"Cc1cc(Nc2nccn3c(-c4ccc(OC(F)F)cc4)cnc23)ccc1C(=O)N1CCN(C(=O)[C@@H](N)CCCCN)CC1 [Example 452, (2S)-2,6-diamino-1-[4-[4-[[3-[4-(difluoromethoxy)phenyl]imi-dazo[1,2-a]pyrazin-8-yl]amino]-2-methylbenzoyl]piperazin-1-yl]hexan-1-one; hydrochloride]",3600 nM
8,"Cc1cc(Nc2nccn3c(-c4ccc(OC(F)F)cc4)cnc23)ccc1C(=O)N1CCN(C(=O)[C@H]2CCNC[C@@H]2O)CC1 [Example 507, [4-[[3-[4-(difluoromethoxy)phenyl]imi-dazo[1,2-a]pyrazin-8-yl]amino]-2-methylphenyl]-[4-[(3R,4S)-3-hydroxypiperidine-4-carbonyl]piperazin-1-yl]methanone]",510 nM
9,"Cc1cc(Nc2nccn3c(-c4ccc(OC(F)F)cc4)cnc23)ccc1C(=O)N1CCC(C(=O)NC23CN4CN(CN(C4)C2)C3)CC1 [Example 405, 1-[4-[[3-[4-(difluoromethoxy)phenyl]imi-dazo[1,2-a]pyrazin-8-yl]amino]-2-methylbenzoyl]-N-(1,3,5-triazatricyclo[3.3.1.1^3,7]decan-7-yl)piperidine-4-carboxamide]",480 nM
10,"COc1ccc(-c2cnc3c(Nc4ccc(C(=O)N5CCC(C(=O)NCC6(O)CCNC6)CC5)c(C)c4)nccn23)c(F)c1F (stereo not shown) [Example 286, 1-[4-[[3-(2,3-difluoro-4-methoxyphenyl)imidazo[1,2-a]pyrazin-8-yl]amino]-2-methylbenzoyl]-N-[(3-hydroxypyrrolidin-3-yl)methyl]piperidine-4-carboxamide; hydrochloride]",73 nM
11,"Cc1cc(Nc2nccn3c(-c4ccc(OS(C)(=O)=O)c(F)c4F)cnc23)ccc1C(=O)N1CCN(C(=O)[C@@H]2C[C@@H](O)CN2)CC1 [Example 453, [2,3-difluoro-4-[8-[4-[4-[(2S,4R)-4-hydroxypyrrolidine-2-carbonyl]piperazine-1-carbonyl]-3-methylanilino]imidazo[1,2-a]pyrazin-3-yl]phenyl] methanesulfonate; formic acid]",4200 nM
12,"CNCCCCNC(=O)C1CCN(C(=O)c2ccc(Nc3nccn4c(-c5ccc(OC)c(F)c5)cnc34)cc2C)CC1 [Example 51, 1-(4-((3-(3-fluoro-4-methoxyphenyl)imidazo[1,2-a]pyrazin-8-yl)amino)-2-methylbenzoyl)-N-(4-(methylamino)butyl)piperidine-4-carboxamide hydrochloride]",290 nM
13,"Cc1cc(Nc2nccn3c(-c4ccc(OC(F)F)cc4)cnc23)ccc1C(=O)N1CCN(C(=O)[C@H]2[C@@H]3CNC[C@@H]32)CC1 [Example 319, [4-[[3-[4-(difluoromethoxy)phenyl]imi-dazo[1,2-a]pyrazin-8-yl]amino]-2-methylphenyl]-[4-[rac-(1R,5S)-3-azabicyclo[3.1.0]hexane-6-carbonyl]piperazin-1-yl]methanone; hydrochloride]",260 nM
14,"COc1ccc(-c2cnc3c(Nc4ccc(C(=O)N5CCC(CNC(CN)C(=O)O)CC5)c(C)c4)nccn23)cc1 (stereo not shown) [Example 420, 3-amino-2-[[1-[4-[[3-(4-methoxyphenyl)imidazo[1,2-a]pyrazin-8-yl]amino]-2-methylbenzoyl]piperidin-4-yl]methylamino]propanoic acid; formic acid]",1100 nM
